Data: article PMC6074028 (Organic & biomolecular chemistry, 2009)
Read-outs that look alike come from different tables or passages of the source.

Assays:
[1] = target: T1, BaPanK (type-III pantothenate kinase from Bacillus anthracis) (Bacillus anthracis, UniProt Q81VX4); type: biochemical
[2] = target: T1, BaPanK (type-III pantothenate kinase from Bacillus anthracis); type: biochemical; remark: listed apart in the source

T1 sequence (Q81VX4 whole entry, looked up): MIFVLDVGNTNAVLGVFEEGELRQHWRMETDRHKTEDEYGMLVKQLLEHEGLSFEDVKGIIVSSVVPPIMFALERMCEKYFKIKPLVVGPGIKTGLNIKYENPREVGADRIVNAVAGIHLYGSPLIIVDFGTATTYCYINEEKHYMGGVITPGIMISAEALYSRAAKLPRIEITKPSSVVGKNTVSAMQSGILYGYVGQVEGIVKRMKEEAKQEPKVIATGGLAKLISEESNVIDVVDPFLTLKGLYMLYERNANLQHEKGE

SMILES	Km [1]	Km [2]
Nc1ncnc2c1ncn2[C@@H]1O[C@H](COP(=O)(O)OP(=O)(O)OP(=O)(O)O)[C@@H](O)[C@H]1O [ATP]	510 µM	–
Nc1ncnc2c1ncn2[C@H]1C[C@H](O)[C@@H](COP(=O)(O)OP(=O)(O)OP(=O)(O)O)O1 [dATP]	138 µM	–
Nc1nc2c(ncn2[C@H]2C[C@H](O)[C@@H](COP(=O)(O)OP(=O)(O)OP(=O)(O)O)O2)c(=O)[nH]1 [dGTP]	117 µM	–
Cc1cn([C@H]2C[C@H](O)[C@@H](COP(=O)(O)OP(=O)(O)OP(=O)(O)O)O2)c(=O)[nH]c1=O [dTTP]	723 µM	–
CC(C)(CO)[C@@H](O)C(=O)NCCC(=O)O [pantothenate]	–	275 µM
